Active and inactive are the calls of the source. No cut-off for these calls is given here.
What was measured:
[1] = molecular target: T1, Geranylgeranyl pyrophosphate synthase (Homo sapiens) (UniProt O95749); test: Inhibition of GGDPS in human RPMI-8226 cells assessed as lowest effective concentration required to show unmodified Rap1a band measured after 48 hrs by immunoblot analysis; type: cell-based
T1 sequence (whole entry): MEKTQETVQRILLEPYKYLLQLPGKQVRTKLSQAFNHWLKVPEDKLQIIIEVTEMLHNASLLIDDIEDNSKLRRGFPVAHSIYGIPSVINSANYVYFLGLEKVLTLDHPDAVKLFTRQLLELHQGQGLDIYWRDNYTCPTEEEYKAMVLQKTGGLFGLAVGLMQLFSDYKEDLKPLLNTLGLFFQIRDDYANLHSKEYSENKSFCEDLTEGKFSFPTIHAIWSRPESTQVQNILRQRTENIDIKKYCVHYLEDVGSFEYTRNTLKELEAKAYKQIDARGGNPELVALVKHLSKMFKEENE

[2] = molecular target: T1, Geranylgeranyl pyrophosphate synthase (Homo sapiens); test: Inhibition of GGDPS in human RPMI-8226 cells assessed as lowest effective concentration required for increase in intracellular lambda chain level after 48 hrs by ELISA; type: cell-based
[3] = molecular target: T1, Geranylgeranyl pyrophosphate synthase (Homo sapiens); test: Inhibition of GGDPS in human 143B cells assessed as lowest effective concentration required to show unmodified Rap1a band measured after 48 hrs by immunoblot analysis; type: cell-based
[4] = molecular target: T1, Geranylgeranyl pyrophosphate synthase (Homo sapiens); test: Inhibition of GGDPS in human SAOS-2 cells assessed as lowest effective concentration required to show unmodified Rap1a band measured after 48 hrs by immunoblot analysis; type: cell-based
[5] = molecular target: T1, Geranylgeranyl pyrophosphate synthase (Homo sapiens); test: Inhibition of GGDPS in human MM1.S cells assessed as appearance of unmodified Rap1a band measured after 48 hrs by immunoblot analysis; type: cell-based
[6] = molecular target: T1, Geranylgeranyl pyrophosphate synthase (Homo sapiens); test: Inhibition of GGDPS in human MG-63 cells assessed as lowest effective concentration required to show unmodified Rap1a band measured after 48 hrs by immunoblot analysis; type: cell-based
[7] = Apparent permeability of the compound by PAMPA; type: ADME
[8] = molecular target: T2, Geranylgeranyl pyrophosphate synthase (Homo sapiens, UniProt O95749); test: Inhibition of recombinant GGDPS (unknown origin) using [14C] IPP and FPP as substrate preincubated for 10 mins followed by substrate addition and measured after 30 mins by scintillation counting method
T2 sequence (O95749 whole entry): T1 sequence (whole entry)

[9] = molecular target: T1, Geranylgeranyl pyrophosphate synthase (Homo sapiens); test: Inhibition of GGDPS in human MM1.S cells assessed as appearance of unmodified Rap1a band at 1 to 100 uM measured after 48 hrs by immunoblot analysis; type: cell-based; details: dose 1-100 µM
[10] = molecular target: T1, Geranylgeranyl pyrophosphate synthase (Homo sapiens); test: Inhibition of GGDPS in human MM1.S cells assessed as lowest effective concentration required to show unmodified Rap1a band measured after 48 hrs by immunoblot analysis; type: cell-based
[11] = molecular target: T1, Geranylgeranyl pyrophosphate synthase (Homo sapiens); test: Inhibition of GGDPS in human RPMI-8226 cells assessed as increase in intracellular lambda chain level up to 100 uM after 48 hrs by ELISA; type: cell-based
[12] = molecular target: T1, Geranylgeranyl pyrophosphate synthase (Homo sapiens); test: Inhibition of GGDPS in human RPMI-8226 cells assessed as appearance of unmodified Rap1a band up to 100 uM measured after 48 hrs by immunoblot analysis; type: cell-based
RPMI-8226 = test: Cytotoxicity against human RPMI-8226 cells assessed as reduction in cell viability up to 10 uM measured after 48 hrs by MTT assay; type: functional, cell-based
143B = test: Cytotoxicity against human 143B cells assessed as reduction in cell viability up to 10 uM measured after 48 hrs by MTT assay; type: functional, cell-based
[13] = molecular target: T1, Geranylgeranyl pyrophosphate synthase (Homo sapiens); test: Inhibition of GGDPS in human 143B cells assessed as appearance of unmodified Rap1a band at 0.1 to 1 uM measured after 48 hrs by immunoblot analysis; type: cell-based; details: dose 0.1-1 µM
[14] = molecular target: T1, Geranylgeranyl pyrophosphate synthase (Homo sapiens); test: Inhibition of GGDPS in human SAOS-2 cells assessed as appearance of unmodified Rap1a band at 0.1 to 1 uM measured after 48 hrs by immunoblot analysis; type: cell-based; details: dose 0.1-1 µM
[15] = molecular target: T1, Geranylgeranyl pyrophosphate synthase (Homo sapiens); test: Inhibition of GGDPS in human MG-63 cells assessed as appearance of unmodified Rap1a band at 0.1 to 1 uM measured after 48 hrs by immunoblot analysis; type: cell-based; details: dose 0.1-1 µM

| SMILES | LED [1] | LED [2] | LED [3] | LED [4] | LED [6] | IC50 [8] | also measured |
| --- | --- | --- | --- | --- | --- | --- | --- |
| CC(C)=CCCC(C)=CCCn1cc(CC(P(=O)(O)O)P(=O)(O)O)nn1 | 0.03 µM | 0.03 µM | – | – | – | – | – |
| CC(C)=CCC/C(C)=C/CCn1cc(C2CC2(P(=O)(OCOC(=O)C(C)(C)C)OCOC(=O)C(C)(C)C)P(=O)(OCOC(=O)C(C)(C)C)OCOC(=O)C(C)(C)C)nn1 (stereo unspecified) | 5 µM | 5 µM | 5 µM | 5 µM | 5 µM | – | inhibition [5]: Not active; No Evidence Of Disruption Of Geranylgeranylation Was Observed |
| CC(C)=CCC/C(C)=C\CCn1cc(C2CC2(P(=O)([O-])[O-])P(=O)([O-])[O-])nn1.[Na+].[Na+].[Na+].[Na+] (stereo unspecified) | 100 µM | 100 µM | 50 µM | 50 µM | 50 µM | 2870 nM | Papp [7]: 0.283 10^-6 cm/s; inhibition [9]: Not active; No Appreciable Activity Observed |
| CC(C)=CCCC(C)=CCn1cc(C2OC2(P(=O)(O)O)P(=O)(O)O)nn1 (stereo unspecified) | 5 µM | 5 µM | 5 µM | 0.5 µM | 5 µM | 11000 nM | LED [10]: 5 µM |
| CC(C)=CCC/C(C)=C/CCn1cc(C2CC2(P(=O)([O-])[O-])P(=O)([O-])[O-])nn1.[Na+].[Na+].[Na+].[Na+] (stereo unspecified) | 100 µM | 100 µM | 5 µM | 5 µM | 5 µM | 890 nM | Papp [7]: 0.061 10^-6 cm/s; inhibition [9]: Not active; No Appreciable Activity Observed |
| CC(C)=CCCC(C)CCCn1cc(C=C(P(=O)(O)O)P(=O)(O)O)nn1 (stereo unspecified) | 50 µM | 50 µM | – | – | – | > 100000 nM | – |
| CC(C)=CCC/C(C)=C/CCn1cc(CC(C)(P(=O)(O)O)P(=O)(O)O)nn1 | 0.02 µM | 0.02 µM | – | – | – | – | – |
| CC(C)=CCCC(C)CCCn1cc(C2CC2(P(=O)(O)O)P(=O)(O)O)nn1 (stereo unspecified) | – | – | – | – | – | > 100000 nM | inhibition [11]: inactive; inhibition [12]: inactive |
| CC(C)=CCC/C(C)=C/CCn1cc(CC(P(=O)(O)O)P(=O)(O)O)nn1 | 0.09 µM | 0.09 µM | – | – | – | – | – |
| CC(C)=CCC/C(C)=C\CCn1cc(C=C(P(=O)(O)O)P(=O)(O)O)nn1 | 0.25 µM | 0.25 µM | 0.25 µM | 0.01 µM | 0.25 µM | 370 nM | Activity (RPMI-8226): Active; LED [10]: 0.25 µM; Activity (143B): Active |
| CC(C)=CCC/C(C)=C/CCn1cc(C=C(P(=O)(O)O)P(=O)(O)O)nn1 | 0.25 µM | 0.25 µM | 0.25 µM | 0.01 µM | 0.25 µM | 400 nM | Activity (RPMI-8226): Active; LED [10]: 0.25 µM; Activity (143B): Active |
| CC(C)=CCCC(C)=CCn1cc(C2CC2(P(=O)(O)O)P(=O)(O)O)nn1 (stereo unspecified) | 0.5 µM | 0.5 µM | – | – | – | – | – |
| CC(C)=CCCC(C)CCCn1cc(CC(P(=O)(O)O)P(=O)(O)O)nn1 (stereo unspecified) | 10 µM | 10 µM | – | – | – | 25100 nM | – |
| CC(C)=CCCC(C)=CCn1cc(CC(P(=O)(O)O)P(=O)(O)O)nn1 | 0.5 µM | 0.5 µM | – | – | – | – | – |
| CC(C)=CCC/C(C)=C\CCn1cc(CC(C)(P(=O)(O)O)P(=O)(O)O)nn1 | 0.025 µM | – | – | – | – | – | – |
| CC(C)=CCC/C(C)=C/CCn1cc(C2OC2(P(=O)(O)O)P(=O)(O)O)nn1 (stereo unspecified) | – | – | – | – | – | 450 nM | inhibition [13]: Active; inhibition [14]: Active; inhibition [11]: inactive; inhibition [12]: inactive; inhibition [15]: Active |
| CC(C)=CCC/C(C)=C\CCn1cc(C2OC2(P(=O)(O)O)P(=O)(O)O)nn1 (stereo unspecified) | 2.5 µM | 2.5 µM | – | – | – | 2360 nM | inhibition [13]: Active; inhibition [14]: Active; inhibition [15]: Active |
| CC(C)=CCCC(C)=CCn1cc(C=C(P(=O)(O)O)P(=O)(O)O)nn1 | 0.25 µM | 0.25 µM | – | – | – | – | – |

From ChEMBL document CHEMBL6109095, “Impact of fixed phosphorus position on activity of triazole bisphosphonates as geranylgeranyl diphosphate synthase inhibitors” (Bioorg Med Chem, 2025)
